Results reported in patent US9802880B2, “Cannabigerol derivatives” (VIVACELL BIOTECHNOLOGY ESPAÑA S.L., priority 2014, dated 2017).

Assays:
[1] = test system: PPARg; test: PPARg transactivation assay in human dermal primary fibroblasts; format: cell-based; settings: 6 h treatment, FIG. 2
Source text: FIG. 2. PPARg Transactivation Assays in Human Dermal Primary Fibroblasts.

[2] = test system: N2a cells; test: Neuroprotection assay, glutamate-induced excitotoxicity in N2a cells; format: cell-based; settings: 1 h pre-incubation, then 5 mM glutamate 24 h, FIG. 5
Protocol: N2a cells were pre-incubated for 1 h with compounds (II) to (V) and (XII) at the indicated concentrations. Then, cells were treated for 24 h with 5 mM glutamate to induce excitotoxicity, or cytotoxicity in neuronal cells induced by neurotransmitters. Cell viability was quantified by MTT assay. […] Control was set as 100% and data were referred to that value.
Cultured N2A cells were pre-incubated with the compounds II, III, IV, V and XII at the indicated concentrations for 1 h and then treated with 5 mM glutamate to induce excitotoxicity during 24 h (FIG. 5). Cytotoxicity was determined by the MTT method as described in example 3. Results are shown as mean±S.D. from at least three independent experiments, and expressed as percentage of cell viability against the control sample (−). Control was set as 100% and data were referred to that value.

[3] = test system: PPARg; test: PPARg transactivation assay in HEK-293 cells (GAL4-PPARγ / GAL4-luc); settings: for increase of PPARg activity: 1 μM concentration; for PPARg activation (fold) compared with CBG-Q: HEK-293 cells, 6 h treatment, FIG. 1; for PPARg transactivation (luciferase activity, fold induction over untreated cells): increasing doses, 6 h
[4] = test system: EAE mice; test: Experimental autoimmune encephalomyelitis (EAE), clinical score; format: in vivo, C57BL/6 mice; settings: 5 mg/kg daily from day 6 post-immunization for 21 days, FIG. 8
Protocol: C57BL/6 mice were immunized with MOG35-55 and their clinical score evaluated daily. Mice were treated daily with compound (III) (10 mg/kg) on day 6 post-immunization and the 21 following days. […] Values are expressed as means±SEM for 10 animals per group.
C57BL/6 mice were immunized with MOG35-55 and their clinical score evaluated daily. Mice were treated daily with compound (XII) (5 mg/kg) on day 6 post-immunization and the 21 following days. […] Values are expressed as means±SEM for 6 animals per group.
EAE was induced in female C57BL/6 mice at 6-8 weeks of age by subcutaneous immunization with myelin oligodendrocyte glycoprotein polypeptide (MOG35-55) (300 μg) and 200 μg of Mycobacterium tuberculosis (H37Ra Difco, Franklin Lakes, N.J., USA) in a 1:1 mix with […] Freund's adjuvant (CFA, Sigma-Aldrich, Madrid, Spain). On the same day and 2 days later, mice were injected intraperitoneally (ip) with 200 ng of pertussis toxin (Sigma-Aldrich, Madrid, Spain) in 0.1 ml PBS. […] Treatment started at day 6 post-immunization (p.i.) and consisted in daily injections of compounds III (FIG. 6) and XII (FIG. 8) at the indicated doses or of the vehicle alone (DMSO/PBS) for the following 21 days. The mice were examined daily for clinical signs of EAE and disease scores were measured as follows: 0, no disease; 1, limp tail; 2, limp tail and hind limb weakness; 3, hind limb paralysis; 4, hind limb and front limb paralysis; 5, moribund and death. All animals were sacrificed 28 days (p.i.) for further analysis. Once sacrificed, animals were dissected and their spinal cords were rapidly removed and quickly frozen in RNAlater (Sigma-Aldric, Germany).

[5] = test system: 3NP-lesioned mice; test: Huntington's disease 3NP model, behavioral score; format: in vivo, C57BL/6 mice; settings: 10 mg/kg i.p., four injections, FIG. 9
Protocol: Mice were subjected to behavioral tests for determining their neurological status after the treatment with compounds I (10 mg/kg) (A), III (10 mg/kg) (B) and XII (10 mg/kg) (C). Hind limb clasping, Locomotor activity, Hind limb dystonia and Truncal Dystonia were rated from 0 to 2 based on severity: a score of 0 typically indicates normal function and 2 seriously affected. Values are expressed as means±SEM for 8 animals per group.
(§1) Lesions of the striatum were induced with 3-NP in adult (16 week old; 30 g) male C57BL/6 mice (Harlan Ibérica, Barcelona, Spain). To this end, mice were subjected to seven intraperitoneal (i.p.) injections of 3NP (one injection each 12 hours) at a dose of 50 mg/kg (prepared in phosphate-buffered saline) for 3 days. These animals and their respective non-lesioned controls were used for pharmacological studies with compounds CBG-Q (compound I) and with compounds III and XII (FIG. 9). At least 6-8 animals were used per experimental group. Treatments consisted of four i.p. injections of the compounds at the indicated doses (one injection each 24 hours), or vehicle (DMSO 0.2%, BSA 5% in PBS) 30 min before the injections of 3NP. All animals were euthanized 12 hours after the last 3NP injection. Once euthanized, animals were dissected and their brains were rapidly removed. The right hemisphere was used to dissect the striatum, which was quickly frozen in RNAlater (Sigma-Aldrich, Germany) to analyzed inflammatory markers were by Real Time PCR. The left hemisphere was fixed in fresh 4% paraformaldehyde (in 0.1M phosphate buffered-saline) for 48 hours at 4° C. and embedded in paraffin wax for histological analysis. Mice were subjected to behavioral tests for determining their neurological status. We evaluated the general locomotor activity, the hindlimb clasping and dystonia, and the truncal dystonia. All behavioral tests were conducted prior to drug injections to avoid acute effects of the compounds under investigation.

[6] = test system: COX-2, iNOS, TNFα and IL-6; test: 3NP model, inflammatory marker mRNAs in the striatum (real-time PCR); format: in vivo, C57BL/6 mice; settings: 3NP-treated mice, 10 mg/kg, FIG. 10 and FIG. 11
Protocol: Gene expression of inflammatory markers including COX-2, TNFα, IL-6 and iNOS, was down regulated in 3NP+compound III (10 mg/kg) treated mice compared with 3NP+Vehicle mice. Expression levels were calculated using the 2^−ΔΔct method. Values are expressed as means±SEM for 6 animals per group.
Gene expression of inflammatory markers including COX-2, TNFα, IL-6 and iNOS, was down regulated in 3NP+XII (10 mg/kg) treated mice compared with 3NP+Vehicle mice. Expression levels were calculated using the 2^−ΔΔct method. Values are expressed as means±SEM for 6 animals per group.
Lesions of the striatum were induced with 3-NP in adult (16 week old; 30 g) male C57BL/6 mice (Harlan Ibérica, Barcelona, Spain). […] The right hemisphere was used to dissect the striatum, which was quickly frozen in RNAlater (Sigma-Aldrich, Germany) to analyzed inflammatory markers were by Real Time PCR. […] We evaluated the general locomotor activity, the hindlimb clasping and dystonia, and the truncal dystonia. […]
Total RNA was isolated from striata (3NP model) or spinal cord (EAE model) using RNeasy Lipid Tissue Mini Kit (Qiagen, GmbH). The total amount of RNA extracted was quantitated by spectrometry at 260 nm and its purity from the ratio between the absorbance values at 260 and 280 nm. […] Expression levels were calculated using the 2^−ΔΔct method.

[7] = test system: striatal neurons, astrocytes and microglia; test: 3NP model, immunohistochemistry of striatum (NeuN, GFAP, Iba-1); format: in vivo, C57BL/6 mice; settings: 3NP-lesioned mice, 10 mg/kg
Protocol: NeuN (neuronal marker), GFAP (astrocytes marker), and Ibal (microglia marker) were detected by immunostaining in the coronal sections of striatum of mice treated with vehicle, 3NP+ vehicle, 3NP+compoundXII (10 mg/kg) and XII (10 mg/kg). Quantification of NeuN (A), GFAP (B) and Ibal (C) positive cells in the mouse striatum. Total average number of neurons, astrocytes and microglia is shown. Values are expressed as means±SEM for 6 animals per group.
as §1, with “investigation. […]” for “investigation.”

[8] = text refers to FIG. 1 and FIG. 2

CCCCCC1=C(C(=O)OC)C(=O)C(C/C=C(\C)CCC=C(C)C)=C(O)C1=O [Compound II, 6-(3,7-dimethyl-octa-2,6-dienyl)-5-hydroxy-3-pentyl-2-metoxycarbonil-[1,4]benzoquinone]
PPARg activation (fold) compared with CBG-Q [1]: higher efficiency than CBG-Q
protection from glutamate-induced cytotoxicity (cell viability, MTT) [2]: protect neuronal cells from glutamate-induced apoptosis
increase of PPARg activity [3, 8]: ≤ 12 times
PPARg activation (fold) compared with CBG-Q [3]: higher efficiency than CBG-Q
potency to activate PPARg compared with CBG-Q ([3]; concentrations of 1 to 25 μM, text refers to FIG. 1 and FIG. 2): significantly more potent than compound CBG-Q

CCCCCNC1=C(CCCCC)C(=O)C(O)=C(C/C=C(\C)CCC=C(C)C)C1=O [Compound IV, 6-(3,7-dimethyl-octa-2,6-dienyl)-5-hydroxy-3-pentyl-2-pentylamino-[1,4]benzoquinone]
PPARg activation (fold) compared with CBG-Q [1]: higher efficiency than CBG-Q
protection from glutamate-induced cytotoxicity (cell viability, MTT) [2]: protect neuronal cells from glutamate-induced apoptosis
PPARg activation (fold) compared with CBG-Q [3]: higher efficiency than CBG-Q
PPARg transactivation (luciferase activity, fold induction over untreated cells) [3, 8]: most active compounds

CCCCCC1=C(NCC(C)C)C(=O)C(C/C=C(\C)CCC=C(C)C)=C(O)C1=O [Compound V, 6-(3,7-dimethyl-octa-2,6-dienyl)-5-hydroxy-3-pentyl-2-isobutylamino [1,4]benzoquinone]
PPARg activation (fold) compared with CBG-Q [1]: higher efficiency than CBG-Q
protection from glutamate-induced cytotoxicity (cell viability, MTT) [2]: protect neuronal cells from glutamate-induced apoptosis
PPARg activation (fold) compared with CBG-Q [3]: higher efficiency than CBG-Q
PPARg transactivation (luciferase activity, fold induction over untreated cells) [3, 8]: most active compounds

CCCCCC1=C(NC)C(=O)C(C/C=C(\C)CCC=C(C)C)=C(O)C1=O [Compound VII, 6-(3,7-dimethyl-octa-2,6-dienyl)-5-hydroxy-3-pentyl-2-methylamino-[1,4]benzoquinone]
PPARg activation (fold) compared with CBG-Q [3]: higher efficiency than CBG-Q

CCCCCC1=C(NC(C)C)C(=O)C(C/C=C(\C)CCC=C(C)C)=C(O)C1=O [Compound VIII, 6-(3,7-imethyl-octa-2,6-dienyl)-5-hydroxy-3-pentyl-2-isopropylamino-[1,4]benzoquinone]
PPARg activation (fold) compared with CBG-Q [3]: higher efficiency than CBG-Q

CCCCCC1=C(C2=C(CCCCC)C(=O)C(O)=C(C/C=C(\C)CCC=C(C)C)C2=O)C(=O)C(C/C=C(\C)CCC=C(C)C)=C(O)C1=O [Compound XII, 3,3′-bis((E)-3,7-dimethylocta-2,6-dienyl)-4,4′-dihydroxy-6,6′-dipentyl-1,1′-bi(cyclohexa-3,6-diene)-2,2′,5,5′-tetraone]
protection from glutamate-induced cytotoxicity (cell viability, MTT) [2]: protect neuronal cells from glutamate-induced apoptosis
clinical symptoms in EAE mice [4]: alleviated the clinical symptoms in EAE mice to the same extent than compound III
clinical symptoms induced by 3-NP intoxication (hind limb clasping, locomotor activity, hind limb dystonia, truncal dystonia) [5]: clearly alleviates such symptomatology
up-regulation of pro-inflammatory markers COX-2, iNOS, TNFα and IL-6 in the striatum [6]: attenuated the up-regulation
striatal neurons, NeuN staining ([7]; FIG. 12A): preservation of striatal neurons
GFAP+ cells (astrocytes) in striatum ([7]; FIG. 12B): counteracted the lost of GFAP^+ cells
reactive microgliosis (Iba-1+ cells) in striatum ([7]; FIG. 12C): prevented the induction of reactive microgliosis

CN(CCOc1ccc(CC2SC(=O)NC2=O)cc1)c1ccccn1 (centres unmarked) [Rosiglitazone, reference compound]
increase of PPARg activity [3, 8]: more than 100 times
